This note sets out measurements from PubChem BioAssay (NCI).

Assay in all cases: growth of human tumour cells (NCI), 48 h
Experiment [1] deals with COLO 205 colon.
Experiment [2] concerns SF-539 CNS.
Experiment [3] relates to U251 CNS.
In experiment [4] the test system is UO-31 renal.
The test system of experiment [5] is SW-620 colon.
Experiment [6] relates to SF-295 CNS.
In experiment [7] the test system is HCT-116 colon.
For experiment [8], the system named is HOP-92 NSCLC.
The subject of experiment [9] is ACHN renal.

Several values for one entry are separate records, joined by “and”; a condition that tells them apart may be missing. Identical values can stand only once.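 In this assay, cells in 96-well plates receive the compound at five concentrations for 48 hours. Endpoints are linearly interpolated between the surrounding concentrations. Here, GI50 denotes the concentration required for 50% inhibition of growth. TGI marks complete inhibition of growth.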

Take `C=CCC(C(=O)OC)C1(C(=O)OC)c2[nH]c3ccccc3c2CCN1Cc1ccccc1` (configuration not stated): the TGI in experiment [1], in [2], in experiment [3], in experiment [4], in experiment [5] and in experiment [6] was greater than 100 µM in each case. Besides, the TGI in [7] was greater than 100 µM; in [8], 74.6 µM.

On to `Nc1ccc2c(c1)C(=O)c1ccc(F)cc1-2`, for which the TGI in [1], in experiment [9], in experiment [2], in [3], in experiment [4] and in experiment [5] was greater than 100 µM in each case. For the same compound, the TGI in [6], in [7] and in experiment [8] was greater than 100 µM throughout.

As to `COC1=C(OC)C(=O)C(/C=C(\C)C(=O)O)=C(C)C1=O`, the GI50 in experiment [1], in experiment [9], in [2], in experiment [3], in experiment [4] and in experiment [5] was greater than 100 µM each time. The GI50 in experiment [6], in experiment [7] and in experiment [8] was greater than 100 µM each time. Besides, the TGI in experiment [1], in [9], in [2], in experiment [3], in experiment [4] and in experiment [5] was greater than 100 µM in each case. The TGI in experiment [6], in experiment [7] and in experiment [8] was greater than 100 µM in each case.

In the case of `Cc1ccc(-n2c3c(c4c(CN5CCCCC5)c(O)ccc42)CCc2ccccc2C3=O)cc1`, the GI50 is greater than 100 µM in experiment [1]; greater than 100 µM in experiment [9]; 50 µM in experiment [2]; 47.9 µM in [3]; greater than 100 µM in experiment [4]; greater than 100 µM in [5]. For the same compound, the GI50 in experiment [6] is 35.8 µM; in [7] it was 43.4 µM; in [8], 20 µM. Besides, the TGI in experiment [1], in experiment [9], in experiment [2], in experiment [3], in experiment [4] and in experiment [5] was greater than 100 µM each time. For the same compound, the results for the TGI in experiment [6], in [7] and in [8] were greater than 100 µM, greater than 100 µM and 88.2 µM, respectively.

Take `CCCc1cc(=O)oc2c(C(=O)CC(C)C)c(O)c(CC=C(C)C)c(O)c12`: the GI50 is 10.6 µM in experiment [1]; 7.53 µM in experiment [9]; 9.8 µM in experiment [2]; 9.19 µM in experiment [3]; 12.1 µM in [4]; 14.9 µM in [5]. Further, the GI50 in experiment [6] is 7.81 µM; in experiment [7], 8.59 µM; in experiment [8] it was 1.25 µM. Moreover, the TGI in experiment [1] is 21.5 µM; in [9], 47.1 µM; in experiment [2], 44.2 µM; in experiment [3], greater than 50 µM; in experiment [4] it was greater than 50 µM; in experiment [5], greater than 50 µM. The TGI in experiment [6] was 31.3 µM; in [7] it was greater than 50 µM; in experiment [8] it was 4.15 µM.

For the compound `C=CCN1C(=O)/C(=c2\sc3n(c2=O)C2C(NN=3)N(CC)C(=O)N2CC)c2ccccc21` (configuration not stated), the GI50 in experiment [1] was 0.549 µM; in experiment [9], 0.834 µM; in [2], 0.346 µM; in experiment [3], 0.726 µM; in experiment [5] it was 0.423 µM; in experiment [6] it was 0.455 µM. Moreover, the GI50 was 0.403 µM in experiment [7] and 0.842 µM in [8]. The TGI was greater than 20.4 µM in experiment [1]; greater than 100 µM in [9]; 2.87 µM in [2]; greater than 33.5 µM in experiment [3]; greater than 100 µM in experiment [5]; greater than 33.7 µM in [6]. Besides, the TGI was greater than 100 µM in experiment [7] and 9.2 µM in experiment [8].

For the compound `Oc1nc(NCCc2ccccc2)sc1/C=C1\C=Nc2ncccc21`, the GI50 in [1] was 1.93 µM and 2.96 µM; in experiment [9], 2.45 µM and 2.7 µM; in experiment [2] it was 1.32 µM and 1.47 µM; in [3], 2.29 µM and 3.26 µM; in experiment [4], 3.53 µM and 3.83 µM; in experiment [5], 1.92 µM and 2.37 µM. Further, the GI50 in experiment [6] was 3.32 µM and 3.14 µM; in experiment [7], 1.03 µM and 1.23 µM; in [8] it was 1.3 µM and 1.43 µM. The TGI was 5.95 µM and 11 µM in experiment [1]; 19.1 µM and 10.8 µM in experiment [9]; 3.82 µM and 3.65 µM in [2]; 7.89 µM and 11.5 µM in experiment [3]; 12.4 µM and 84.6 µM in experiment [4]; 8.09 µM and 11.9 µM in [5]. For the same compound, the TGI is 13.2 µM and 23.6 µM in experiment [6]; 11.1 µM and 6.5 µM in experiment [7]; 8.82 µM and 7.62 µM in experiment [8].

As to `CN(C)CCNC(=O)c1cccc2nc3ccc4ccccc4c3nc12`, the TGI in experiment [1] stood at 0.206 µM; in [2], 0.271 µM; in [3], 0.665 µM; in [4], 0.433 µM; in [5], 0.313 µM; in experiment [6], 0.53 µM. Moreover, the TGI in [7] turned out to be 0.205 µM; in [8] it was 0.392 µM.

On to `O=S(=O)(NCCNc1nccc(-c2c(-c3cccc(O)c3)nc3sccn23)n1)c1ccc(F)cc1`, for which the GI50 in [1] is 0.779 µM; in experiment [9], 3.53 µM; in experiment [2], 5.23 µM; in experiment [3], 7.48 µM; in experiment [4], 4.32 µM; in experiment [5], 5.95 µM. Moreover, the GI50 is 3.26 µM in experiment [7] and 11.5 µM in experiment [8]. In addition, the TGI in experiment [1] was found to be 11.5 µM; in [9], 28.4 µM; in experiment [2], 24.6 µM; in experiment [3], 49.3 µM; in experiment [4], 21 µM; in experiment [5], 36.9 µM. For the same compound, the TGI in experiment [7] worked out at 27.1 µM; in experiment [8] it was 57 µM.

For `COCCc1c(C)c(C#N)c2n(C)c3ccccc3n2c1=O`, the TGI in experiment [1], in [9], in experiment [2], in [3], in experiment [5] and in [6] was greater than 10 µM throughout. In addition, the TGI in experiment [7] and in experiment [8] was greater than 10 µM each time.
